Each compound was assayed against T1, PLK1 (Homo sapiens, UniProt P53350) (assay: Luciferase assay for PLK1 in HeLa LgBit (Plk1-HiBit KI) cell line). Conditions: 300 nM compound, luminescence after 9 hours.
T1 construct: endogenous in cells; host or cells: HeLa LgBit (Plk1-HiBit KI): HeLa stably expressing LgBit, with a CRISPR/Cas9 knock-in of HiBit at the endogenous PLK1 locus
Assay type: cell-based
Procedure, shortened: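 Luminescence, followed in real time after adding compound at 300 nM and Endurazine substrate, is reported relative to DMSO-treated wells. Cells are a HeLa LgBit line with a Plk1-HiBit knock-in, synchronized by 2 mM thymidine for 24 h, released, and cultured 18 h before treatment.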

T1 sequence (P53350 whole entry): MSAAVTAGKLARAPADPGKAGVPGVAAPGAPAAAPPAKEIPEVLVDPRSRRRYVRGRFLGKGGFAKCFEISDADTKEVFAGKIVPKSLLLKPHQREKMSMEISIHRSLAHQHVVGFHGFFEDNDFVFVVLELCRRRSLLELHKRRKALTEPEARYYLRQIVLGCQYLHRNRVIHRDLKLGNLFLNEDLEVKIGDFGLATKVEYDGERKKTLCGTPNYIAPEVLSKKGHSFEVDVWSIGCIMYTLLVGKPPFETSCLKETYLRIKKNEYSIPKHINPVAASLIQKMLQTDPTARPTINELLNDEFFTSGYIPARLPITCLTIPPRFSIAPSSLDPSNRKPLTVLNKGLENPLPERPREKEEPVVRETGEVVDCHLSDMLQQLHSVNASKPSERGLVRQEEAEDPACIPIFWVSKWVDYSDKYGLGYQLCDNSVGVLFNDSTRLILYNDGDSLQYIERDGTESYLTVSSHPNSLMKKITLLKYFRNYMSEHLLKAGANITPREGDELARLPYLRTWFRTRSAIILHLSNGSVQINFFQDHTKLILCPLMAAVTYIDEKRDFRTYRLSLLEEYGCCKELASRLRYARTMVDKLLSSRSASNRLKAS

Structure (SMILES)	Activity: ratio of the luminescense value of each Exemplary Compound treatment group to DMSO treatment group
COc1cc(C(=O)Nc2ccc(OCCN3CCN(c4cccc5c4C(=O)N(C4CCC(=O)NC4=O)C5=O)CC3)cc2)c(F)cc1Nc1ncc2c(n1)N(C1CCCC1)CC(F)(F)C(=O)N2C (stereo not drawn) [Compound 141, 4-((9-cyclopentyl-7,7-difluoro-5-methyl-6-oxo-6,7,8,9-tetrahydro-5H-pyrimido[4,5-b][1,4]diazepin-2-yl)amino)-N-(4-(2-(4-(2-(2,6-dioxopiperidin-3-yl)-1,3-dioxoisoindolin-4-yl)piperazin-1-yl)ethoxy)phenyl)-2-fluoro-5-methoxybenzamide]	++ (++<0.6)
C=C[C@]1(F)CN(C2CCCC2)c2nc(Nc3ccc(C(=O)NC4CCN(C(=O)CCN5CCN(c6cccc7c6C(=O)N(C6CCC(=O)NC6=O)C7=O)CC5)CC4)cc3OC)ncc2N(C)C1=O (single isomer, unassigned) [Compound 109]	+ (+<0.7)
COc1cc(C(=O)NC2CCN(CCOCCOCCOCCOCCOCCOCCNc3cccc4c3C(=O)N(C3CCC(=O)NC3=O)C4=O)CC2)c(F)cc1Nc1ncc2c(n1)N(C1CCCC1)CC(F)(F)C(=O)N2C (stereo not drawn) [Compound 17, 4-((9-cyclopentyl-7,7-difluoro-5-methyl-6-oxo-6,7,8,9-tetrahydro-5H-pyrimido[4,5-b][1,4]diazepin-2-yl)amino)-N-(1-(20-((2-(2,6-dioxopiperidin-3-yl)-1,3-dioxoisoindolin-4-yl)amino)-3,6,9,12,15,18-hexaoxaicosyl)piperidin-4-yl)-2-fluoro-5-methoxybenzamide]	++ (++<0.6)
COc1cc(C(=O)NN2CCC(N3CC4(CCN(c5ccc6c(c5)C(=O)N(C5CCC(=O)NC5=O)C6=O)CC4)C3)CC2)ccc1Nc1ncc2c(n1)N(C(C)C)CC(F)(F)C(=O)N2C (stereo not drawn) [Compound 214, 4-((7,7-difluoro-9-isopropyl-5-methyl-6-oxo-6,7,8,9-tetrahydro-5H-pyrimido[4,5-b][1,4]diazepin-2-yl)amino)-N-(4-(7-(2-(2,6-dioxopiperidin-3-yl)-1,3-dioxoisoindolin-5-yl)-2,7-diazaspiro[3.5]nonan-2-yl)piperidin-1-yl)-3-methoxybenzamide]	+ (+<0.7)
COc1cc(C(=O)NC2CCN(C(=O)CCN3CCN(c4ccc5c(c4)CN(C4CCC(=O)NC4=O)C5=O)CC3)CC2)c(F)cc1Nc1ncc2c(n1)N(C1CCCC1)CC(F)(F)C(=O)N2C (stereo not drawn) [Compound 61, 4-((9-cyclopentyl-7,7-difluoro-5-methyl-6-oxo-6,7,8,9-tetrahydro-5H-pyrimido[4,5-b][1,4]diazepin-2-yl)amino)-N-(1-(3-(4-(2-(2,6-dioxopiperidin-3-yl)-1-oxoisoindolin-5-yl)piperazin-1-yl)propanoyl)piperidin-4-yl)-2-fluoro-5-methoxybenzamide]	++ (++<0.6)
COc1cc(C(=O)NC2CCN(C(=O)CCN3CCN(c4cccc5c4C(=O)N(C4CCC(=O)NC4=O)C5=O)CC3)CC2)ccc1Nc1ncc2c(n1)N(C1CC1)CC(F)(F)C(=O)N2C (stereo not drawn) [Compound 67, 4-((9-cyclopropyl-7,7-difluoro-5-methyl-6-oxo-6,7,8,9-tetrahydro-5H-pyrimido[4,5-b][1,4]diazepin-2-yl)amino)-N-(1-(3-(4-(2-(2,6-dioxopiperidin-3-yl)-1,3-dioxoisoindolin-4-yl)piperazin-1-yl)propanoyl)piperidin-4-yl)-3-methoxybenzamide]	++ (++<0.6)
COc1cc(C(=O)NC2CC(N(C)CC3CCN(c4ccc5c(c4)C(=O)N(C4CCC(=O)NC4=O)C5=O)CC3)C2)ccc1Nc1ncc2c(n1)N(C1CCCC1)CC(F)(F)C(=O)N2C (stereo not drawn) [Compound 104, 4-((9-cyclopentyl-7,7-difluoro-5-methyl-6-oxo-6,7,8,9-tetrahydro-5H-pyrimido[4,5-b][1,4]diazepin-2-yl)amino)-N-(3-(((1-(2-(2,6-dioxopiperidin-3-yl)-1,3-dioxoisoindolin-5-yl)piperidin-4-yl)methyl)(methyl)amino)cyclobutyl)-3-methoxybenzamide]	++ (++<0.6)
COc1cc(C(=O)N2CCN(CCCCNc3ccc4c(c3)C(=O)N(C3CCC(=O)NC3=O)C4=O)CC2)c(F)cc1Nc1ncc2c(n1)N(C1CCCC1)CC(F)(F)C(=O)N2C (stereo not drawn) [Compound 187, 5-((4-(4-(4-((9-cyclopentyl-7,7-difluoro-5-methyl-6-oxo-6,7,8,9-tetrahydro-5H-pyrimido[4,5-b][1,4]diazepin-2-yl)amino)-2-fluoro-5-methoxybenzoyl)piperazin-1-yl)butyl)amino)-2-(2,6-dioxopiperidin-3-yl)isoindoline-1,3-dione]	+ (+<0.7)
COc1cc(C(=O)NC2CCN(C(=O)CCNc3cccc4c3C(=O)N(C3CCC(=O)NC3=O)C4=O)CC2)c(F)cc1Nc1ncc2c(n1)N(C1CCCC1)CC(F)(F)C(=O)N2C (stereo not drawn) [Compound 24, 4-((9-cyclopentyl-7,7-difluoro-5-methyl-6-oxo-6,7,8,9-tetrahydro-5H-pyrimido[4,5-b][1,4]diazepin-2-yl)amino)-N-(1-(3-((2-(2,6-dioxopiperidin-3-yl)-1,3-dioxoisoindolin-4-yl)amino)propanoyl)piperidin-4-yl)-2-fluoro-5-methoxybenzamide]	+ (+<0.7)
COc1cc(C(=O)N2CCC(CN3CCN(c4cccc5c4C(=O)N(C4CCC(=O)NC4=O)C5=O)CC3)CC2)ccc1Nc1ncc2c(n1)N(C1CCCC1)CC(F)(F)C(=O)N2C (stereo not drawn) [Compound 93, 4-(4-((1-(4-((9-cyclopentyl-7,7-difluoro-5-methyl-6-oxo-6,7,8,9-tetrahydro-5H-pyrimido[4,5-b][1,4]diazepin-2-yl)amino)-3-methoxybenzoyl)piperidin-4-yl)methyl)piperazin-1-yl)-2-(2,6-dioxopiperidin-3-yl)isoindoline-1,3-dione]	++ (++<0.6)
COc1cc(C(=O)NC2CCCN(CC3CCN(c4cccc5c4C(=O)N(C4CCC(=O)NC4=O)C5=O)CC3)C2)ccc1Nc1ncc2c(n1)N(C1CCCC1)CC(F)(F)C(=O)N2C (stereo not drawn) [Compound 126, 4-((9-cyclopentyl-7,7-difluoro-5-methyl-6-oxo-6,7,8,9-tetrahydro-5H-pyrimido[4,5-b][1,4]diazepin-2-yl)amino)-N-(1-((1-(2-(2,6-dioxopiperidin-3-yl)-1,3-dioxoisoindolin-4-yl)piperidin-4-yl)methyl)piperidin-3-yl)-3-methoxybenzamide]	+ (+<0.7)
COc1cc(C(=O)NC2CCN(C(=O)CCCCCOC3CN(c4cccc5c4C(=O)N(C4CCC(=O)NC4=O)C5=O)C3)CC2)ccc1Nc1ncc2c(n1)N(C1CCCC1)CC(F)(F)C(=O)N2C (stereo not drawn) [Compound 199, 4-((9-cyclopentyl-7,7-difluoro-5-methyl-6-oxo-6,7,8,9-tetrahydro-5H-pyrimido[4,5-b][1,4]diazepin-2-yl)amino)-N-(1-(6-((1-(2-(2,6-dioxopiperidin-3-yl)-1,3-dioxoisoindolin-4-yl)azetidin-3-yl)oxy)hexanoyl)piperidin-4-yl)-3-methoxybenzamide]	+ (+<0.7)
